This test has as its target T1, HCV genotype 1b (BK) NS3 modified with a R155K mutation (Hepatitis C virus genotype 1b, UniProt P26663, R1181K).
T1 construct: HCV genotype 1b (BK) NS3 modified with a R155K mutation
The test can be described thus: HCV NS3 protease time-resolved fluorescence (TRF) assay, NS3 protease 1b R155K Ki activity. It counts as biochemical. The settings on record: HCV genotype 1b (BK) NS3 with R155K mutation; TRF peptide substrate 100 nM; Ki derived from IC50. The protocol:
The HCV NS3 protease inhibitory activity of the present compounds may be tested using assays known in the art. One such assay is HCV NS3 protease time-resolved fluorescence (TRF) assay as described below and in International Patent Application Publication WO 2006/102087. Other examples of such assays are described in e.g., International Patent Application Publication WO 2005/046712.
A NS3 protease assay can be performed, for example, in a final volume of 100 μl assay buffer containing 50 mM HEPES, pH 7.5, 150 mM NaCl, 15% glycerol, 0.15% TRITON X-100, 10 mM DTT, and 0.1% PEG 8000. NS3 and NS4A protease is pre-incubated with various concentrations of inhibitors in DMSO for 30 minutes. The reaction is initiated by adding the TRF peptide substrate (final concentration 100 nM). NS3 mediated hydrolysis of the substrate is quenched after 1 hour at room temperature with 100 μl of 500 mM MES, pH 5.5. Product fluorescence is detected using either a VICTOR V2 or FUSION fluorophotometer (Perkin Elmer Life and Analytical Sciences) with excitation at 340 nm and emission at 615 nm with a 400 μs delay. Testing concentrations of different enzyme forms are selected to result in a signal to background ratio (S/B) of 10-30. IC50 values are derived using a standard four-parameter fit to the data. Ki values are derived from IC50 values using the following formula, IC50=Ki(1+[S]/KM), Eqn (1), where [S] is the concentration of substrate peptide in the reaction and KM is the Michaelis constant. See P. Gallinari et al., 38 BIOCHEM. 5620-32 (1999); P. Gallinari et al., 72 J. VIROL. 6758-69 (1998); M. Taliani et al., 240 ANAL. BIOCHEM. 60-67 (1996).
The HCV NS3 protease inhibitory activity was measured using the protease time-resolved fluorescence (TRF) assay as described below and in International Patent Application Publication WO 2006/102087. The assay was performed with HCV genotype 1b (BK) NS3 modified with a R155K mutation.
The assay was performed in a final volume of 100 μl in assay buffer containing 50 mM HEPES, pH 7.5, 150 mM NaCl, 15% glycerol, 0.15% TRITON X-100, 10 mM DTT, and 0.1% PEG 8000. NS3 and NS4A protease is pre-incubated with various concentrations of inhibitors in DMSO for 30 minutes. The reaction is initiated by adding the TRF peptide substrate (final concentration 100 nM). NS3 mediated hydrolysis of the substrate is quenched after 1 hour at room temperature with 100 μl of 500 mM MES, pH 5.5. Product fluorescence is detected using either a VICTOR V2 or FUSION fluorophotometer (Perkin Elmer Life and Analytical Sciences) with excitation at 340 nm and emission at 615 nm with a 400 μs delay. Testing concentrations of the enzyme containing the R155K mutation were selected to result in a signal to background ratio (S/B) of 10-30. IC50 values are derived using a standard four-parameter fit to the data. Ki values are derived from IC50 values using the following formula, IC50=Ki(1+[S]/KM), Eqn (1), where [S] is the concentration of substrate peptide in the reaction and KM is the Michaelis constant. See P. Gallinari et al., 38 BIOCHEM. 5620-32 (1999); P. Gallinari et al., 72 J. VIROL. 6758-69 (1998); M. Taliani et al., 240 ANAL. BIOCHEM. 60-67 (1996).

Consider `C=C[C@@H]1C[C@]1(NC(=O)[C@@H]1C[C@@H]2CN1C(=O)[C@H](C1CCCC1)NC(=O)O[C@@H]1CCC[C@H]1CC1CC1CCn1c(cc3cc(Cl)ccc3c1=O)O2)C(=O)NS(=O)(=O)C1CC1` (stereo partly drawn), for which the Ki – broadly, the dissociation constant of the complex between target and ligand, obtained from inhibition or displacement – fell in the range of 0.1 to 0.5 nM.

Take `C=C[C@@H]1C[C@]1(NC(=O)[C@@H]1C[C@@H]2CN1C(=O)[C@H](C1CCCC1)NC(=O)O[C@@H]1CCC[C@H]1CCCCCn1c(cc3ccccc3c1=O)O2)C(=O)NS(=O)(=O)C1CC1` [Example 13, (3aR,7S,10S,12R,25aR)-7-cyclopentyl-N-((1R,2S)-1-{[(cyclopropylsulfonyl)amino]carbonyl}-2-vinylcyclopropyl)-5,8,19-trioxo-1,2,3,3a,5,6,7,8,11,12,21,22,23,24,25,25a-hexadecahydro-10H,19H-9,12-methanocyclopenta[18,19][1,10,3,6,12]dioxatriazacyclotionadecino[12,11-b]isoquinoline-10-carboxamide]: the Ki is < 0.1 nM.

Regarding `C=C[C@@H]1C[C@]1(NC(=O)[C@@H]1C[C@@H]2CN1C(=O)[C@H](C1CCCC1)NC(=O)O[C@@H]1CCC[C@H]1C/C=C/CCn1c(cc3cc(Cl)ccc3c1=O)O2)C(=O)NS(=O)(=O)C1CC1` [(3aR,7S,10S,12R,23E,25aS)-16-chloro-7-cyclopentyl-N-((1R,2S)-1-{[(cyclopropylsulfonyl)amino]carbonyl}-2-vinylcyclopropyl)-5,8,19-trioxo-1,2,3,3a,5,6,7,8,11,12,21,22,25,25a-tetradecahydro-10H,19H-9,12-methanocyclopenta[18,19][1,10,3,6,12]dioxatriazacyclononadecino[12,11-b]isoquinoline-10-carboxamide], the Ki is < 0.1 nM.

Take `C=C[C@@H]1C[C@]1(NC(=O)[C@@H]1C[C@@H]2CN1C(=O)[C@H](C(C)(C)C)NC(=O)O[C@@H]1CCC[C@H]1C/C=C/CCn1c(cc3ccccc3c1=O)O2)C(=O)NS(=O)(=O)C1CC1` [(3aR,7S,10S,12R,23E,25aS)-7-tert-butyl-N-((1R,2S)-1-{[(cyclopropylsulfonyl)amino]carbonyl}-2-vinylcyclopropyl)-5,8,19-trioxo-1,2,3,3a,5,6,7,8,11,12,21,22,25,25a-tetradecahydro-10H,19H-9,12-methanocyclopenta[18,19][1,10,3,6,12]dioxatriazacyclononadecino[12,11-b]isoquinoline-10-carboxamide]: the Ki was < 0.1 nM.

`CC[C@@H]1C[C@]1(NC(=O)[C@@H]1C[C@@H]2CN1C(=O)[C@H](C1CCCC1)NC(=O)O[C@@H]1CCC[C@H]1CCCCCn1c(cc3cc(Cl)ccc3c1=O)O2)C(=O)NS(=O)(=O)C1CC1` [(3aR,7S,10S,12R,25aR)-16-chloro-7-cyclopentyl-N-((1R,2R)-1-{[(cyclopropylsulfonyl)amino]carbonyl}-2-ethylcyclopropyl)-5,8,19-trioxo-1,2,3,3a,5,6,7,8,11,12,21,22,23,24,25,25a-hexadecahydro-10H,19H-9,12-methanocyclopenta[18,19][1,10,3,6,12]dioxatriazacyclononadecino[12,11-b]isoquinoline-10-carboxamide] showed a Ki of 0.1 to 0.5 nM.

`C=C[C@@H]1C[C@]1(NC(=O)[C@@H]1C[C@@H]2CN1C(=O)[C@H](C1CCCC1)NC(=O)O[C@@H]1CCC[C@H]1CCCC1CC1Cn1c(cc3ccccc3c1=O)O2)C(=O)NS(=O)(=O)C1CC1` (stereo partly drawn) came in with a Ki of 0.5 to 1 nM.

For `C=C[C@@H]1C[C@]1(NC(=O)[C@@H]1C[C@@H]2CN1C(=O)[C@H](C1CCCC1)NC(=O)O[C@@H]1CCC[C@H]1CCC=CCn1c(cccc1=O)O2)C(=O)NS(=O)(=O)C1CC1` [Example 81, (1R,10E, and 10Z,14S,18R,22S,25S)-22-Cyclopentyl-N-((1R,2S)-1-{[(cyclopropyl-sulfonyl)amino]carbonyl}-2-vinylcyclopropyl)-7,20,23-trioxo-2,19-dioxa-8,21,24-tri azatetracyclo[22.2.1.0^3,8.0^14,18]heptacosa-3,5,10-triene-25-carboxamide], the inhibitory constant (Ki) is 0.1 to 0.5 nM.

Regarding `CC[C@@H]1C[C@]1(NC(=O)[C@@H]1C[C@@H]2CN1C(=O)[C@H](C1CCCC1)NC(=O)O[C@@H]1CCC[C@H]1CC/C=C/Cn1c(nc3cc(C(F)(F)F)ccc3c1=O)O2)C(=O)NS(=O)(=O)C1CC1` [(3aR,7S,10S,12R,22E,25aS)-7-cyclopentyl-N-((1R,2R)-1-{[(cyclopropylsulfonyl)amino]carbonyl}-2-ethylcyclopropyl)-5,8,19-trioxo-16-(trifluoromethyl)-1,2,3,3a,5,6,7,8,11,12,21,24,25,25a-tetradecahydro-10H,19H-9,12-methanocyclopenta[18,19][1,10,3,6,12]dioxatriazacyclononadecino[11,12-b]quinazoline-10-carboxamide], the inhibition constant Ki was < 0.1 nM.

With `C=C[C@@H]1C[C@]1(NC(=O)[C@@H]1C[C@@H]2CN1C(=O)[C@H](C1CCCC1)NC(=O)O[C@@H]1CCC[C@H]1CC/C=C/Cn1c(nc3cc(OC)ccc3c1=O)O2)C(=O)NS(=O)(=O)C1CC1` [(3aR,7S,10S,12R,22E,25aS)-7-cyclopentyl-N-((1R,2S)-1-{[(cyclopropylsulfonyl)amino]carbonyl}-2-vinylcyclopropyl)-16-methoxy-5,8,19-trioxo-1,2,3,3a,5,6,7,8,11,12,21,24,25,25a-tetradecahydro-10H,19H-9,12-methanocyclopenta[18,19][1,10,3,6,12]dioxatriazacyclononadecino[11,12-b]quinazoline-10-carboxamide], the Ki was < 0.1 nM.

Compound `CC[C@@H]1C[C@]1(NC(=O)[C@@H]1C[C@@H]2CN1C(=O)[C@H](C1CCCC1)NC(=O)O[C@@H]1CCC[C@H]1CC/C=C/Cn1c(nc3cc(-c4ccccc4)ccc3c1=O)O2)C(=O)NS(=O)(=O)C1CC1` [(3aR,7S,10S,12R,22E,25aS)-7-cyclopentyl-N-((1R,2R)-1-{[(cyclopropylsulfonyl)amino]carbonyl}-2-ethylcyclopropyl)-5,8,19-trioxo-16-phenyl-1,2,3,3a,5,6,7,8,11,12,21,24,25,25a-tetradecahydro-10H,19H-9,12-methanocyclopenta[18,19][1,10,3,6,12]dioxatriazacyclononadecino[11,12-b]quinazoline-10-carboxamide] came in with a Ki of 0.1 to 0.5 nM.

For the compound `CC[C@@H]1C[C@]1(NC(=O)[C@@H]1C[C@@H]2CN1C(=O)[C@H](C1CCCC1)NC(=O)O[C@@H]1CCC[C@H]1CCCCCn1c(cc3ccccc3c1=O)O2)C(=O)NS(=O)(=O)C1CC1` [(3aR,7S,10S,12R,25aR)-7-cyclopentyl-N-((1R,2R)-1-{[(cyclopropylsulfonyl)amino]carbonyl}-2-ethylcyclopropyl)-5,8,19-trioxo-1,2,3,3a,5,6,7,8,11,12,21,22,23,24,25,25a-hexadecahydro-10H,19H-9,12-methanocyclopenta[18,19][1,10,3,6,12]dioxatriazacyclononadecino[12,11-b]isoquinoline-10-carboxamide], the Ki was 0.1 to 0.5 nM.

Turning to `CC[C@@H]1C[C@]1(NC(=O)[C@@H]1C[C@@H]2CN1C(=O)[C@H](C1CCCC1)NC(=O)O[C@@H]1CCC[C@H]1CC/C=C/Cc1c(nc3cc(OC)ccn3c1=O)O2)C(=O)NS(=O)(=O)C1CC1` [(3aR,7S,10S,12R,22E,25aS)-7-cyclopentyl-N-((1R,2R)-1-{[(cyclopropylsulfonyl)amino]carbonyl}-2-ethylcyclopropyl)-16-methoxy-5,8,20-trioxo-1,2,3,3a,5,6,7,8,11,12,21,24,25,25a-tetradecahydro-10H,20H-9,12-methanocyclopenta[r]pyrido[1′,2′:1,2]pyrimido[4,5-k][1,10,3,6]dioxadiazacyclononadecine-10-carboxamide], the Ki was 0.1 to 0.5 nM.

(Values after patent publication US8461107B2 (Merck Sharp & Dohme Corp., priority 2008, dated 2013).)
